Measurements as given in patent US11525106B2, “Tetraacetyldiamine and triacetyldiamine derivatives useful as bleach activators” (DOW GLOBAL TECHNOLOGIES LLC, priority 2018, dated 2022).

Experiments:
[1] = hydrolytic degradation in buffer, followed by HPLC; assay type: physicochemical; details: for kH (hydrolysis rate constant) / half-life at 50 μg/mL: Tris buffer pH 8.0 (0.1 M):acetonitrile 3:1, 50 μg/mL, 20° C.; for half-life at 50 μg/mL: Tris buffer:acetonitrile (3:1, v/v), read-out: t1/2,H (hydrolysis half-life) (converted); for half-life relative to half-life of TAED: pH 8.0; for hydrolytic degradation compared with TAED: pH 8.0, FIG. 1A
Method: (§1) To study the hydrolytic degradation, 1 and 2 were dissolved in Tris buffer (pH 8.0, 0.1 M):acetonitrile (can) mixture (3:1, v/v) at 50 μg/mL. The perhydrolytic degradation was evaluated at similar conditions in the presence of sodium perborate (10 equiv.). Commercially available bleach activator, tetraacetylethylenediamine (TAED), was used as a control. The mixture was incubated at room temperature (20° C.) for 20 days. At different time intervals, an aliquot of the solution was taken out and analyzed by HPLC. The concentration of 1 and 2 was quantified by UV-vis absorption at Δmax=218 nm through standard curve. For the bleaching test, 1, 2, TAED, and other control molecules (20 mg) were treated with commercially available food dyes (100× dilution, 1 mL) and hydrogen peroxide (H2O2, 30%, 1 mL). The mixtures were incubated at room temperature (20° C.) and checked at different time intervals to monitor the bleaching of the dyes.

[2] = hydrolytic degradation in buffer, followed by HPLC; assay type: physicochemical; details: pH 9.0
[3] = bleaching test with food dye and hydrogen peroxide; details: FIG. 2; for time after which the blue color was bleached: food dye in Tris buffer pH 8.0 with H2O2 (30%) 1:1, 10 mg compound per mL; for bleaching activation effect: food dye (blue) with H2O2, room temperature
Method: as §1
The compounds of the invention were subjected to a bleaching test. The food dye was purchased from Adams Extract, and diluted 500 times with Tris buffer (pH 8.0, 0.1 M) before use. The diluted food dye was mixed with H2O2 (30%) in 1:1 ratio (v/v). For every 10 mg of TAED/TA(Me)ED/TriA(Me)ED, 1 mL of food dye/H2O2 mixture was added. The widely used bleach activator TAED actively reacted with H2O2, and the blue color disappeared after about 24 hours.

[4] = perhydrolytic degradation in the presence of sodium perborate (10 equiv.), followed by HPLC; assay type: physicochemical; details: sodium perborate/persalts 10 equiv.
Method: as §1

[5] = solubility in aqueous environment; assay type: physicochemical; details: without organic solvent

SMILES	kH (hydrolysis rate constant) [1] [h⁻¹]	half-life at 50 μg/mL [1] [h]	half-life relative to half-life of TAED [1] [times longer]	hydrolytic degradation compared with TAED [1]	hydrolysis compared to TAED ([1]; pH values between about 5 and 9)	half-life relative to half-life of TAED [2] [times longer]	perhydrolysis rate, comparison among TAED, 1 and 2 [4]	hydrolysis compared to TAED ([1]; basic pH)	solubility in water [5]	time after which the blue color was bleached [3]	bleaching activation effect [3]
CC(=O)NC(C)CN(C(C)=O)C(C)=O (stereo not drawn) [Compound 2, N-(2-acetamidopropyl)-N-acetylacetamide]	0.0015	462	5.7	slower degradation	–	5.8	comparable	even slower hydrolysis	–	24 h	much slower bleaching action
CC(=O)NCC(C)NC(C)=O (stereo not drawn) [Compound 3, N,N′-(propane-1,2-diyl)diacetamide, reference compound]	–	–	–	–	–	–	–	–	–	–	did not exhibit any bleaching activation effect
CC(=O)NCCNC(C)=O [DAED, diacetylethylenediamine, reference compound]	–	–	–	–	–	–	–	–	–	–	did not exhibit any bleaching activation effect

Now from value to compound, other results behind:

kH (hydrolysis rate constant) [1] [h⁻¹]	half-life at 50 μg/mL [1] [h]	half-life relative to half-life of TAED [1] [times longer]	hydrolytic degradation compared with TAED [1]	hydrolysis compared to TAED ([1]; pH values between about 5 and 9)	half-life relative to half-life of TAED [2] [times longer]	perhydrolysis rate, comparison among TAED, 1 and 2 [4]	hydrolysis compared to TAED ([1]; basic pH)	solubility in water [5]	SMILES	time after which the blue color was bleached [3]	bleaching activation effect [3]
0.0038	181	1.5	slower degradation	slower hydrolysis	2.6	comparable	–	–	CC(=O)N(CC(C)N(C(C)=O)C(C)=O)C(C)=O (stereo not drawn) [Compound 1, N,N′-(propane-1,2-diyl)bis(N-acetylacetamide)]	24 h	–
0.0091	76	–	–	–	–	comparable	–	cannot be easily solubilized in water	CC(=O)N(CCN(C(C)=O)C(C)=O)C(C)=O [TAED, tetraacetylethylenediamine, reference compound]	about 24 hours	–
